In US20090247420A1, “METHOD FOR ENCODING AND SCREENING COMBINATORIAL LIBRARIES” (priority 2005, published 2009):

Legend:
[1] = molecular target: T1, ImmunoPure avidin (Pierce) outfitted with xanthone ET-sensitizer (Gallus gallus, UniProt P02701); test: Photolytic tag-release binding screen of the tag-encoded model mini-library with avidin-xanthone conjugate in DPC micelles, GCMS detection of released dithiane tags; settings: for dithiane tags encoding the library member detected in the GCMS chromatogram after the photolytic assay: dithiane-aldehyde adduct tags, 0.7 mM each tagged library member, 23 μM protein, 155 mM DPC, incubated 1 hour, irradiated 4 hours, 335 nm long pass filter, hexane extract
T1 construct: purchased Pierce
Procedure: The receptor, ImmunoPure® avidin (Pierce), was outfitted with xanthone as an ET-sensitizer. The N-hydroxysuccinimide ester of 11-(xanthone-2-carboxamido)undecanoic acid was coupled to avidin in a 20 mM sodium phosphate buffer according to a described procedure (Wilchek, Methods Enzymol), with subsequent purification on a Sephadex G-25 column. […] Tethering the xanthone-based sensitizer to avidin is no different from outfitting a receptor with a fluorophore for the conventional on-the-bead fluorescence-guided assays.
The screening volume was compartmentalized with micellar detergent, dodecyl phosphocholine (DPC), preventing indiscriminant collisional quenching of avidin-tethered xanthone by unbound molecules and thus limiting the ET sensitization exclusively to the bound host-guest complex. Besides the fact that amphiphiles displaying phosphocholine are common in biological settings, utilization of DPC micelles offers a number of additional benefits: (i) it ensures that the screening is always compatible with aqueous media, regardless of aqueous solubility of the tested libraries; (ii) it allows the design of the tagging system to be centered around readily available hydrophobic alkyl dithianes, which can be selectively extracted after irradiation with hexane or other non-polar solvents for unobstructed GCMS analysis; (iii) it spatially segregates the photofragmentation chemistry from molecular recognition, eliminating potential interference between them; (iv) it restricts the photochemistry to the micelle interior improving quantum efficiency of fragmentation, as it is known to increase in the non-polar environment; and, finally, (v) the micelle-assisted design offers an option of solubilizing certain target proteins, which are not water soluble. While not an issue with avidin, this functionality may be important in assaying insoluble membrane proteins, as recognized in the art.
A typical screening procedure involved solubilization of the mini-library, approximately 0.5 mg per tagged compound, in a 0.6 mL aqueous solution containing 60 mg of DPC. To this clear micellar solution 0.5 mL of avidin-xanthone conjugate was added, so the final concentrations were 0.7 mM of each library member carrying one tag (6.3 mM total), 23 μM protein and 155 mM DPC. The micelle-embedded molecules had apparent translational diffusion coefficients of 7×10^−7 cm^2s^−1, as measured with spin-echo pulse field gradient (PFG) ^1H NMR. […] Then the mixture was extracted with 0.5 mL of hexane, concentrated to 100 μL and analyzed by GCMS.
The generality of this approach is not limited to the tagging assemblies based on dithiane-aldehyde adducts. […] None of the other six dithianes were detected in the hexane extract after irradiation. […]

[2] = Benzophenone-sensitized photofragmentation of triazole 22 and its photostability without sensitizer; type: physicochemical
Procedure: To this end 3a was coupled with propargyl amine, providing the acetylenic tagging component S20 for the azide-acetylene click pair. Another readily available tag series was prepared from commercially available acetylenic benzaldehyde as shown in Scheme 12. The Staudinger ligation produces the benzamide linkage, found in compounds 4, 6 and 10, for example. Acetylene-azide click chemistry yields triazoles. […] Triazole 22 was unchanged after prolonged irradiation in the absence of the ET-sensitizer, showing no self-cleavage at wavelengths above 330 nm. This is a critically important finding because premature self-cleavage is detrimental to screening, as it produces false positives.

T1 sequence (P02701 25-152): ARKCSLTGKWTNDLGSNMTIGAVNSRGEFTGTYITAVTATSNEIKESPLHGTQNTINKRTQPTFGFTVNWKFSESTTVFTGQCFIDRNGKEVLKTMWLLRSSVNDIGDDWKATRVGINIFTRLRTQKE

For O=C(O)CCCC[C@@H]1SC[C@@H]2NC(=O)N[C@@H]21 [biotin], the “dithiane tags encoding the library member detected in the GCMS chromatogram after the photolytic assay” value [1] was “detected” and the “dithianes encoding the library member detected in the GCMS trace of the hexane extract after irradiation” value ([1]; mini-library tagged with nine thio ortho esters (19), three tags per member, DPC micellar solution, avidin-xanthone conjugate) was “showed only the dithianes encoding biotin”.
For NCCCCCCCCCCC(=O)O [aminoundecanoic acid, 11-aminoundecanoic acid], the “dithiane tags encoding the library member detected in the GCMS chromatogram after the photolytic assay” value [1] was “not discernible at all”.
For COC(=O)CCCCCCCCCn1cc(-c2ccc(C(O)C3(C)SCCCS3)cc2)nn1 (stereo not drawn) [compound 22], the “stability to irradiation (self-cleavage)” value ([2]; prolonged irradiation in the absence of the ET-sensitizer, wavelengths above 330 nm) was “unchanged” and the “quantum efficiency of methyl dithiane release” value ([2]; upon benzophenone sensitization, compared with the parent (unsubstituted) benzaldehyde adduct) was “very similar to the parent (unsubstituted) benzaldehyde adduct”.
With N[C@H]1C(O)O[C@H](CO)[C@@H](O)[C@@H]1O (stereo partly drawn) [glucosamine] the “dithiane tags encoding the library member detected in the GCMS chromatogram after the photolytic assay” value [1] was “not discernible at all”.
